According to patent US6180385A (priority 1996, dated 2001):

Key:
L proteinase = details: cited from earlier work
Lb proteinase [1] = target: T1, Lb proteinase (Foot-and-mouth disease virus serotype O, UniProt P03305); type: biochemical, FMDV
Lb proteinase [2] = target: T1, Lb proteinase

T1 sequence (P03305 29-201 limits assumed): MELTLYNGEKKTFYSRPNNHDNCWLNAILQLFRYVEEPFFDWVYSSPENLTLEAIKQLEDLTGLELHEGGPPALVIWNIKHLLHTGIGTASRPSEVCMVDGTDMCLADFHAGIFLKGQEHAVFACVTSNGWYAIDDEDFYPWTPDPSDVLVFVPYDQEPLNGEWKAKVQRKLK

For `CC(C)CC(NC(=O)C1OC1C(=O)O)C(=O)NCCCCN=C(N)N` (stereo not shown) [Peptide E64, E64], the “effect on the L proteinase” value (L proteinase) is given as “inhibition”.

In the case of `CCCCCCCCCCCCOS(=O)(=O)O` [SDS], the “cleavage of peptide LVP4-1 by Lb proteinase in the presence of inhibitor” value (Lb proteinase [1]) is reported as “No cleavage” and the “inhibition of cleavage of peptides P89, p220-4 and p220-6 by Lb proteinase” value (Lb proteinase [1]) is reported as “complete inhibition”.

For “Ac-T*R*P I I T T A G P S D M Y V H-NH2 [Peptide P89]”, the “cleavage of peptide in the absence of SDS (controls)” value (“cleavage of peptide … (controls)” below) (Lb proteinase [2]) was “efficient cleavage” and the “peptide cleaved by Lb (qualitative)” value (Lb proteinase [2]) was “cleaved”.

In the case of “G R T T L S T R*G P P R G G P G [p220-4]”, the “cleavage of peptide … (controls)” value (Lb proteinase [2]) is reported as “efficient cleavage” and the “peptide cleaved by Lb (qualitative)” value (Lb proteinase [2]) is reported as “cleaved”.

In the case of “T P S F A N L G*R T T L S T R G [p220-6]”, the “FMDV Lb cleavage site on the peptide (* indicates cleavage site)” value (Lb proteinase [2]) is reported as “G*R”, the “cleavage of peptide … (controls)” value (Lb proteinase [2]) is reported as “efficient cleavage” and the “peptide cleaved by Lb (qualitative)” value (Lb proteinase [2]) is reported as “cleaved”.
